Assay results as given in US8367838B2, “Amines or amino alcohols as GLYT1 inhibitors” (Hoffmann-La Roche Inc., priority 2009, dated 2013).
Structures can show the parent of a compound that is named as a salt.

Molecular target: T1, mGlyT-1b (Mus musculus, UniProt P28571)
T1 construct: host or cells: Flp-in-CHO
T1 sequence (P28571 1-651 isoform P28571-2): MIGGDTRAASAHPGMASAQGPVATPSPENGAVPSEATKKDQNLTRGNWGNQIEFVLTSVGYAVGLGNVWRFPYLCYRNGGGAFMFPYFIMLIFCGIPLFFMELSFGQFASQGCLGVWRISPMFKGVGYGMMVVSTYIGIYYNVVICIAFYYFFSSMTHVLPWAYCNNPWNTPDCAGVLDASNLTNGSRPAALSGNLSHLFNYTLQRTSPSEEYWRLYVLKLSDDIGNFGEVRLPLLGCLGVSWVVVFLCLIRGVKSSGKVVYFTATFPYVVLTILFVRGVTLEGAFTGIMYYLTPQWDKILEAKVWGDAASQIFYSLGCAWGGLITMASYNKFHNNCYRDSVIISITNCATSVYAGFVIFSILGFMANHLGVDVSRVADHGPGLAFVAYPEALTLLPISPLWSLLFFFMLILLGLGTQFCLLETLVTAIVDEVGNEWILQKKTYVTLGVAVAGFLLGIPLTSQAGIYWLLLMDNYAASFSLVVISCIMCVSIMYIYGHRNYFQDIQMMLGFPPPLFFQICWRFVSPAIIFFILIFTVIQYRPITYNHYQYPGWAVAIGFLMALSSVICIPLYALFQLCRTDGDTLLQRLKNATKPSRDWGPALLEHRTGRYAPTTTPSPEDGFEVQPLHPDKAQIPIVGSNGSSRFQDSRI
Assay: Glycine uptake inhibition assay (mGlyT-1b), [3H]-glycine uptake in transfected Flp-in-CHO cells
Assay type: cell-based
Details: Flp-in-CHO cells transfected with mGlyT-1b cDNA; [3H]-glycine 60 nM and 25 μM non-radioactive glycine; 20 min preincubation at 22° C.; read-out: IC50 (μM) at GlyT-1; Ic50 (hglyt1b)
Procedure: Nutrient mixture F-12 (Gibco Life-technologies), fetal bovine serum (FBS) 5%, (Gibco life technologies), Penicillin/Streptomycin 1% (Gibco life technologies), Hygromycin 0.6 mg/ml (Gibco life technologies), Glutamine 1 mM Gibco life technologies).
150 mM NaCl, 10 mM Hepes-Tris, pH 7.4, 1 mM CaCl2, 2.5 mM KCl, 2.5 mM MgSO4, 10 mM (+) D-glucose. Flp-in™-CHO (Invitrogen Cat n° R758-07) cells stably transfected with mGlyT1b cDNA.
Glycine Uptake Inhibition Assay (mGlyT-1b)
On day 1 mammalian cells, (Flp-in™-CHO), transfected with mGlyT-1b cDNA, were plated at the density of 40,000 cells/well in complete F-12 medium, without hygromycin in 96-well culture plates. On day 2, the medium was aspirated and the cells were washed twice with uptake buffer (UB). The cells were then incubated for 20 min at 22° C. with either (i) no potential competitor, (ii) 10 mM non-radioactive glycine, (iii) a concentration of a potential inhibitor. A range of concentrations of the potential inhibitor was used to generate data for calculating the concentration of inhibitor resulting in 50% of the effect (e.g. IC50, the concentration of the competitor inhibiting glycine uptake of 50%). A solution was then immediately added containing [^3H]-glycine 60 nM (11-16 Ci/mmol) and 25 μM non-radioactive glycine. The plates were incubated with gentle shaking and the reaction was stopped by aspiration of the mixture and washing (three times) with ice-cold UB. The cells were lysed with scintillation liquid, shaken 3 hours and the radioactivity in the cells was counted using a scintillation counter.

SMILES	IC50 [µM]
COc1cc(-c2cncc(F)c2)ccc1[C@@H](O)[C@@H](N)c1ccc(Cl)c(Cl)c1 (racemic) [Example 4, rac-erythro-[2-Amino-2-(3,4-dichloro-phenyl)-1-[4-(5-fluoro-pyridin-3-yl)-2-methoxy-phenyl]-ethanoldihydrochloride]	0.346
CC(Oc1ccc([C@@H](O)[C@@H](N)c2ccc(Cl)cc2)cc1)C(F)(F)F (mixture of isomers) [Example 102, rac-erythro-2-Amino-2-(4-chloro-phenyl)-1-[4-(2,2,2-trifluoro-1-methyl-ethoxy)-phenyl]-ethanol]	0.384
N[C@@H](c1ccc(Cl)c(Cl)c1)[C@H](O)c1ccc(OCCC(F)(F)F)cc1 (racemic) [Example 52, rac-erythro-2-Amino-2-(3,4-dichloro-phenyl)-1-[4-(3,3,3-trifluoro-propoxy)-phenyl]-ethanol]	0.772
N[C@@H](c1ccc(Cl)c(Cl)c1)[C@H](O)c1ccc(-c2cncc(F)c2)cc1 (racemic) [Example 83, rac-erythro-2-Amino-2-(3,4-dichloro-phenyl)-1-[4-(5-fluoro-pyridin-3-yl)-phenyl]-ethanol]	0.059
Cc1nc(OC2CCOC2)ccc1[C@@H](O)[C@@H](N)c1ccc(Cl)c(Cl)c1 (mixture of isomers) [Example 15, rac-erythro-[rac-2-Amino-2-(3,4-dichloro-phenyl)-1-[2-methyl-6-(tetrahydro-furan-3-yloxy)-pyridin-3-yl]-ethanoldihydrochloride]	0.021
Cc1cc(OC2CCOCC2)ncc1[C@@H](O)[C@@H](N)c1ccc(Cl)c(Cl)c1 (racemic) [Example 21, rac-erythro-[2-Amino-2-(3,4-dichloro-phenyl)-1-[4-methyl-6-(tetrahydro-pyran-4-yloxy)-pyridin-3-yl]-ethanoldihydrochloride]	0.091
Cc1ccc([C@H](N)[C@H](O)c2ccc(-c3cccnc3)cc2)cc1Cl (racemic) [Example 92, rac-erythro-2-Amino-2-(3-chloro-4-methyl-phenyl)-1-(4-pyridin-3-yl-phenyl)-ethanol]	0.084
N[C@@H](c1ccc(Cl)cc1)[C@H](O)c1ccc(-c2ccccc2F)cc1 (racemic) [Example 68, rac-erythro-2-Amino-2-(4-chloro-phenyl)-1-(2′-fluoro-biphenyl-4-yl)-ethanol]	0.18
N[C@@H](c1ccc(Cl)cc1F)[C@H](O)c1ccc(-c2cccnc2)cc1 (racemic) [Example 97, rac-erythro-2-Amino-2-(4-chloro-2-fluoro-phenyl)-1-(4-pyridin-3-yl-phenyl)-ethanol]	0.267
N[C@@H](c1ccc(Cl)c(Cl)c1)[C@H](O)c1ccc(OC2CCOC2)cn1 (mixture of isomers) [Example 23, rac-erythro-[rac-2-Amino-2-(3,4-dichloro-phenyl)-1-[5-(tetrahydro-furan-3-yloxy)-pyridin-2-yl]-ethanoldihydrochloride]	0.16
CS(=O)(=O)c1cccc(-c2ccc([C@@H](O)[C@@H](N)c3ccc(Cl)c(Cl)c3)cc2)c1 (racemic) [Example 7, rac-erythro-[2-Amino-2-(3,4-dichloro-phenyl)-1-(3′-methanesulfonyl-biphenyl-4-yl)-ethanol trifluoroacetate]	0.041
COc1cncc(-c2ccc([C@@H](O)[C@@H](N)c3ccc(Cl)cc3)cc2)c1 (racemic) [Example 64, rac-erythro-2-Amino-2-(4-chloro-phenyl)-1-[4-(5-methoxy-pyridin-3-yl)-phenyl]-ethanol]	0.138
N[C@@H](c1ccc(Cl)c(Cl)c1)[C@H](O)c1ccc(-c2cncc(F)c2)cn1 (racemic) [Example 12, rac-erythro-[2-Amino-2-(3,4-dichloro-phenyl)-1-(5′-fluoro-[3,3′]bipyridinyl-6-yl)-ethanoltrihydrochloride]	0.148
N[C@@H](c1ccc(C(F)(F)F)cc1)[C@H](O)c1ccc(-c2cccnc2)cc1 (racemic) [Example 88, rac-erythro-2-Amino-1-(4-pyridin-3-yl-phenyl)-2-(4-trifluoromethyl-phenyl)-ethanol]	0.255
Cc1ccccc1-c1ccc([C@@H](O)[C@@H](N)c2ccc(Cl)cc2)cc1 (racemic) [Example 76, rac-erythro-2-Amino-2-(4-chloro-phenyl)-1-(2′-methyl-biphenyl-4-yl)-ethanol]	0.642
CS(=O)(=O)c1cccc(-c2cccc([C@@H](O)[C@@H](N)c3ccc(Cl)c(Cl)c3)c2)c1 (racemic) [Example 5, rac-erythro-[2-Amino-2-(3,4-dichloro-phenyl)-1-(3′-methanesulfonyl-biphenyl-3-yl)-ethanol trifluoroacetate]	0.615
N[C@@H](c1ccc(Cl)cc1)[C@H](O)c1ccc(OC2CCCOC2)cc1 (mixture of isomers) [Example 9, rac-erythro-[2-Amino-2-(4-chloro-phenyl)-1-[4-(tetrahydro-pyran-3-yloxy)-phenyl]-ethanol]	0.138
Cc1ccc([C@H](N)[C@H](O)c2ccc(-c3cncc(F)c3)cc2)cc1F (racemic) [Example 94, rac-erythro-2-Amino-2-(3-fluoro-4-methyl-phenyl)-1-[4-(5-fluoro-pyridin-3-yl)-phenyl]-ethanol]	0.104
N[C@@H](c1ccc(Cl)cc1)[C@H](O)c1ccc(N2CCOCC2)nc1 (racemic) [Example 80, rac-erythro-2-Amino-2-(4-chloro-phenyl)-1-(6-morpholin-4-yl-pyridin-3-yl)-ethanol]	1.04
N[C@@H](c1ccc(Cl)cc1)[C@H](O)c1ccc(-c2ccsc2)cc1 (racemic) [Example 70, rac-erythro-2-Amino-2-(4-chloro-phenyl)-1-(4-thiophen-3-yl-phenyl)-ethanol]	0.297
COc1cccc(-c2ccc([C@@H](O)[C@@H](N)c3ccc(Cl)cc3)cc2)c1 (racemic) [Example 72, rac-erythro-2-Amino-2-(4-chloro-phenyl)-1-(3′-methoxy-biphenyl-4-yl)-ethanol]	0.385
N[C@@H](c1ccc(Cl)cc1)[C@H](O)c1ccc(OC2CCCCC2)cc1 (racemic) [Example 53, rac-erythro-2-Amino-2-(4-chloro-phenyl)-1-(4-cyclohexyloxy-phenyl)-ethanol]	1.03
N[C@@H](c1ccc(Cl)c(Cl)c1)[C@H](O)c1ccc(-c2cncc(F)c2)cc1 (single isomer, unassigned) [Example 8, (1R,2S or 1S,2R)-2-Amino-2-(3,4-dichloro-phenyl)-1-[4-(5-fluoro-pyridin-3-yl)-phenyl]-ethanol trifluoroacetate]	0.059
N[C@@H](c1ccc(Cl)cc1)[C@H](O)c1ccc(-c2cncc(F)c2)cc1 (racemic) [Example 66, rac-erythro-2-Amino-2-(4-chloro-phenyl)-1-[4-(5-fluoro-pyridin-3-yl)-phenyl]-ethanol]	0.152
Cc1nc(OC(C)C)ccc1[C@@H](O)[C@@H](N)c1ccc(Cl)c(Cl)c1 (racemic) [Example 27, rac-erythro-[2-Amino-2-(3,4-dichloro-phenyl)-1-(6-isopropoxy-2-methyl-pyridin-3-yl)-ethanoldihydrochloride]	0.259
CC(C)Oc1cccc(-c2ccc([C@@H](O)[C@@H](N)c3ccc(Cl)c(Cl)c3)cc2)c1 (racemic) [Example 106, rac-erythro-2-Amino-2-(3,4-dichloro-phenyl)-1-(3′-isopropoxy-biphenyl-4-yl)-ethanol]	0.851
Cc1nc(OC2CCOCC2)ccc1[C@@H](O)[C@@H](N)c1ccc(Cl)c(Cl)c1 (racemic) [Example 17, rac-erythro-[2-Amino-2-(3,4-dichloro-phenyl)-1-[2-methyl-6-(tetrahydro-pyran-4-yloxy)-pyridin-3-yl]-ethanoldihydrochloride]	0.043
CC(C)Oc1ccc(F)c(-c2ccc([C@@H](O)[C@@H](N)c3ccc(Cl)c(Cl)c3)cc2)c1 (racemic) [Example 105, rac-erythro-2-Amino-2-(3,4-dichloro-phenyl)-1-(2′-fluoro-5′-isopropoxy-biphenyl-4-yl)-ethanol]	0.567
